B1: TRAIL: TNF-Related Apoptosis Inducing Ligand, used as a positive control for apoptosis (protein, UniProt P50591 1-281, looked up)
Tumor necrosis factor ligand …: MAMMEVQGGPSLGQTCVLIVIFTVLLQSLCVAVTYVYFTNELKQMQDKYSKSGIACFLKEDDSYWDPNDEESMNSPCWQVKWQLRQLVRKMILRTSEETISTVQEKQQNISPLVRERGPQRVAAHITGTRGRSNTLSSPNSKNEKALGRKINSWESSRSGHSFLSNLHLRNGELVIHEKGFYYIYSQTYFRFQEEIKENTKNDKQMVQYIYKYTSYPDPILLMKSARNSCWSKDAEYGLYSIYQGGIFELKENDRIFVSVTNEHLIDMDHEASFFGAFLVG

Key:
[1] = test system: HLE cells; assay: Apoptosis assay (Annexin V-FITC/PI flow cytometry); type: cell-based, human; conditions: 72 h, IBN-15 60 μM, IBN-19 90 μM, IBN-24 90 μM, IBN-25 30 μM, IBN-32 20 μM, DMSO 0.045%
Description: FIG. 36. IMSs induce apoptosis in Hepatocarcinoma cells. A) Cells were treated with vehicle and IBN 15, IBN 19, IBM 24, IBN 25 and IBN 32 for 72 h, and apoptosis was quantified using Annexin V-FITC/PI staining followed by flow cytometric analysis. 10,000 cells were detected for every sample. Living cells are in the bottom left quadrants (FITC− and PI−), early apoptotic cells in the bottom right quadrants (FITC+ and PI−), and late apoptotic cells in the upper right quadrants (apoptotic FITC+ and PI+). B) The percentage of apoptotic cells with respect to different IMSs.
To determine apoptosis analysis, 4×10^5 cells were plated in 10 cm dish. […] The floating and trypsinized adherent cells were collected and the apoptosis was quantified using Annexin V-FITC reagent (BD Biosciences Pharmingen) and PI (Invitrogen) following the manufacturer's protocol. Briefly, the cells were washed twice with cold PBS and then resuspend cell in 100 μl of × binding buffer containing a 10 μl of Annexin V-FITC (BD-Pharminagen) and 2 μl of PI from the stock of 100 μg/ml. The cells were gently vortexed and incubated for 15 min at room temperature in the dark. Subsequently 400 μl of 1× binding buffer were added to each tube, and the samples were immediately analyzed by FACScan flow cytometer (Becton Dickinson). The fluorescent signals of the Annexin-V conjugate and PI were detected at channels of fluorescence intensity FL1 and FL2 (BD LSR II with software BD).
Cells undergoing apoptosis would stain positive for Annexin and negative for PI (quadrant 4, Q4). Cells which stained positive for both Annexin V-FITC and PI (Q2) are either at the end stage of apoptosis or undergoing necrosis, and those which stained negative for both Annexin V-FITC and PI (Q3) were alive or undergoing undetectable apoptosis. In contrast, cell debris stained only for PI (Q1).

[2] = test system: HLE cells; assay: Growth inhibition assay (MTT), HLE; type: cell-based, human; conditions: Homo sapiens
Description: The effect of IMSs (IBN-15, IBN-19, IBN-24, IBN-25 and IBN-32) on the proliferative properties of p53 mutant cell line HLE was examined. The cytotoxicity activity and proliferation inhibition of IMSs in tumor cells were measured by MTT. […] The control experiments with DMSO alone (0.05% v/v) had no effect on cell proliferation. […] (Table 4) Microscopic observation on the cell cultures visually confirmed the inhibition on cell proliferation by IMSs. (FIG. 35)

[3] = test system: HLE cells; assay: Cell cycle analysis (PI flow cytometry); type: cell-based, human; conditions: 72 h; for cells in the S phase: at respective IC-50, control 24%; for cells in the G2/M phase: at respective IC-50, control 30%; for cells in the G1 phase: at respective IC-50, control 50%
Description: FIG. 37. IMSs arrest Hepatocarcinoma cells. Cells were treated with vehicle and IBN 15, IBN 19, IBN 24, IBN 25 and IBN 32 for 72 h, and cell cycle distribution was assessed by flow cytometry. A) Example FACS profiles of propidium iodide-stained control cells, and cells treated with IMSs respectively. B) % of cells in cell cycle phase C) % of cells in subG0 population. Each value is the mean±S.D. of three determinations.
To perform cell cycle distribution analysis, 4×10^5 cells were plated in 10 cm dish. The cells (70% confluence) were serum-starved for 24 h to synchronize them in the G0 phase of the cell cycle. After 24 h incubation, the cells were replaced with fresh 10% DMEM medium and then treated 60 μM of IBN-15, 90 μM of IBN-19, 90 μM of IBN-24, 30 μM of […] and 20 μM of IBN-32) and 0.045% DMSO as control for 72 h. The floating and trypsinized adherent cells were collected and washed with PBS. The cell pellets were resuspended in 1 ml of PBS and fixed by the addition of 70% ice-cold ethanol and stored at −20° C. After incubation for 24 hr, the cells were re-pelleted by centrifugation, the cells were washed once with PBS and resuspended in 0.1 mL of PBS containing 100 μg/ml of RNase and then incubated at 37° C. for 15 min. Finally, the cells were stained with 0.5 ml of PI solution (100 μg/mL in PBS) for 30 min. Cell cycle distribution was detected by a BD FACS array flow cytometer (Becton Dickinson). Cells with sub-G0 DNA were classified as apoptotic cells.

[4] = test system: p53 signaling pathway-associated gene expression in HLE cells; assay: Real-time PCR array of p53 signaling pathway-associated genes; type: cell-based, human; conditions: 48 h
Description: FIG. 42. Real-Time PCR array analysis of p53 signaling pathway-associated gene expression. (A) Anti-apoptotic genes. (B) Growth inhibition gene SESN2. (C) Cell cycle check point genes. (D) Cell proliferation genes. (E) DNA repair gene ATM. The relative level of gene expression was normalized with housekeeping gene GAPDH. Values are expressed as mean±standard deviation.
Cells were seeded at a density of 4×10^5 cells per dish in 10 cm dishes. Next day, the cells were exposed to 90 uM of IBN-19, 90 uM of IBN-24, 40 uM of IBN-25 and 0.045% of DMSO (Dimethyl Sulphoxide) as the control. After 48 hrs, total RNAs were extracted from the cells using Nucleospin RNA II kit as per the manufacturer's istructions. RNA quality and yield were evaluated after spectrophotometer measurements.
The human apoptosis PCR array (RT^2 Profiler) was used to analyze mRNA levels of 84 key genes involved in apoptosis, in a 96-well format, according to the manufacturer's instructions (Super Array Bioscience). First-strand cDNA was synthesized with 1 μg of RNA by using a PCR array first strand-synthesis kit (C-03; Super array Bioscience). This kit uses reverse transcriptase (Power Script; Super array Bioscience) and a combination of random primers and oligo dT primers. The total volume of the reaction was 20 μL diluted to 100 μL. PCR reactions were performed using real-time PCR (79s00HT 96-well block with RT^2 Real-Time SYBR Green PCR master mix PA-012; Applied Biosystems Instruments 7500). The total volume of the PCR reaction was 25 μl. An equivalent of […] of RNA was applied to the PCR reaction. The thermocycler parameters were 95° C. for 10 minutes, followed by 40 cycles of 95° C. for 15 seconds and 60° C. for 1 minute. Relative changes in gene expression were calculated using the ΔΔCt (cycle threshold) method. An average of the number of cycles of the five housekeeping genes, GAPDH, Actin-β, β2m, Hprt1, and Rpl13d, was used to normalize the expression between samples. The expression data are presented as fold regulation. GAPDH gene expression levels were utilized as an internal control to normalize the data. Reported fold changes in expression are the ratios of treatment over control values.
To obtain more information on how the IMSs influence other gene expression in the HLE cells, 84 genes related to p53 signal transduction were profiled by using the RT^2 Profiler array (Super Array Bioscience) (FIG. 42A, B, C, D, E). The array includes keys genes relevant to p53, apoptosis, cell cycle, cell growth, proliferation, differentiation, and DNA repair.

[5] = test system: caspase 3, caspase 9 and PARP; assay: Western blot of caspase-3, caspase-9 and PARP cleavage in HLE; type: cell-based, human; conditions: 72 h
Description: FIG. 38. IMSs, induce cleavage of caspase-3, caspase-9 and PARP. Western blot analysis for the effect of IBN 15, IBM 19, IBN 24, IBM 25, IBN 32 on the cleavage of caspase-3, Caspase-9 and PARP in HLE cells after 72 h exposure to indicated doses of IMSs.
The HLE cells were seeded at a density of 4×10^5 in 10 cm dish. After 24 h incubation, the cells were replaced with fresh 10% DMEM medium and then treated with 60 μM of IBN-15, 90 μM of IBN-19, 90 μM of IBN-24, 30 μM of IBN-25 and 20 μM of IBN 32 and 0.045% DMSO as control for 72 h. Whole cell lysates were prepared on day 3 with lysis buffer [125 mM Tris (pH 7.4), 2% Sodium dodecyl sulfate, 10% glycerol, 6M urea and a protease inhibitor cocktail (Sigma) and 0.02% Bromophenol blue]. The lysates were sonicated for 30 seconds and then heated for 5 mins at boiling temperature. The lysates were centrifuged at 13000 rpm for 10 mins and the protein concentration of each sample was estimated using the BCA protein assay. The lysates was then mixed with 5% 2-mercaptoethanol and stored at −80 C. For Western blotting, samples containing 50 μg of total cell lysate were loaded onto a SDS-PAGE and subjected to electrophoresis. Proteins were transferred to a nitrocellulose membrane and then blocked with 5% non-fat dry milk in Tris buffer saline containing 0.1% Tween 20 for 60 min at 37 C. The membranes were probed with a primary antibody overnight at 4 C in TEST containing 5% Bovine serum albumin. Then the membrane was incubated with horseradish peroxidase (HRP)-conjugated anti-rabbit or anti-mouse secondary antibodies (GE Health care, Chalfont St Giles, UK). Detection was performed with enhanced chemiluminescence (ECL) reagent (Amersham Arlington Heights, Ill.) according to the manufacturer's protocol. Rabbit polyclonal Phospho-p53 (Ser15, 20, 46, 392), anti-caspase-9, anti-caspase-3, anti-PARP antibodies were purchased from Cell Signaling Technology, Inc. (Beverly, Mass., USA). Antibodies against p53 and p21 were purchased from Santa Cruz Biotechnology (Santa Cruz, Calif., USA).

[6] = test system: MDAMB231; assay: Growth inhibition assay (MTT), MDAMB231; type: cell-based, human; conditions: MDAMB231, 72 h
Description: (§3) The percentage of growth inhibition was determined by using a MTT assay to measure viable cells. For the MTT assay, 1×10^3 cells per well were cultured in 96-well plates and treated with 0 to 100 μM of various types of IMSs for 72 h. After incubation for specified times at 37° C. in a humidified incubator, culture medium replaced with 10 μL of MTT reagent (5 mg/mL) contains 100 μL medium was added to each well and further incubated for 4 h. The reaction was stopped by adding 100 μL of DMSO. Absorbance was measured at 570 nm on a micro plate reader (SpectroMax 190, Molecular Devices). Data were presented from three separate experiments, and the percentage of IMSs induced cell growth inhibition was determined where DMSO-treated cells (control) were taken as 100%.
(§4) First, the cytotoxic effect of these drugs on these cells was investigated using the MTT assay. Cells were seeded into 96 well plates and treated with increasing concentrations of these synthetic organic molecules for 72 h, and then the cytotoxic effect was measured.

[7] = test system: MKN 28; assay: Growth inhibition assay (MTT), MKN 28; type: cell-based, human; conditions: MKN 28, 72 h
Description: as §3, §4

[8] = test system: MCF-10A; assay: Growth inhibition assay (MTT), MCF-10A; conditions: 72 h
Description: as §3, §4

[9] = test system: HLE cells; assay: Annexin V staining and flow cytometry, HLE; type: cell-based, human; conditions: 24 hr, TRAIL 100 ng/ml
Description: (§1) FIG. 22. […] HLE or HepG2 cells were incubated with DBZIM of various concentrations for 6 hr, and assayed for caspase 3/7 activity and LDH releasing (expressed as % toxicity). DBZIM induced apoptosis as characterized by annexin V staining using flow cytometer in HLE (E) and HepG2 (F). Scatter plot and histogram gave the representative information on the cell population distribution while bar graphs quantified the percentage of apoptotic cells from the histogram. HLE and HepG2 cells were treated by DBZIM of various concentrations for 24 hr before harvesting for annexin V staining and flow cytometric analysis.
(§2) HLE and HepG2 cells were treated with various concentrations of DBZIM or TRAIL (100 ng/ml) for 24 hr, harvested and labeled with Annexin V-FITC (BioVision, CA, USA). The labeled cells were analysed by flow cytometry FACSCalibur ([…], NJ, USA) and CellQuest software. Cells showing green staining in the plasma membrane were considered as apoptotic cells.

[10] = test system: HepG2 cells; assay: Annexin V staining and flow cytometry, HepG2; type: cell-based, human; conditions: HepG2, 24 hr; TRAIL 100 ng/ml
Description: as §1, §2

Row | Molecule | cell apoptosis (Q2) [1] [%] | IC50 ([2]; 72 h) [µM] | IC50 ([2]; 120 h) [µM] | cells in the S phase [3] [%] | cells in the G2/M phase [3] [%] | cells in the G1 phase [3] [%] | other results
1 | [Br-].c1ccc(Cn2c[n+](Cc3ccccc3)cc2-c2ccccc2)cc1 [IBN-15, 1,3-Dibenzyl-5-phenylimidazolium bromide] | 33 | 60 | 20 | 19.7 | 21 | 42 | –
2 | Cc1n(Cc2ccccc2)cc[n+]1Cc1ccccc1C(F)(F)F.[Cl-] [IBN-25, 1-benzyl-3-(2-trifluoromethylbenzyl)-2-methylimidazolium chloride] | – | 30 | 35 | 14.3 | 19.4 | 34.5 | anti-apoptotic gene BCl-2 expression [4]: significantly down regulated; cell proliferation genes (Mcl1, Egr1, Foxo3, Jun, Mdm4, Nf1, Prm1D, Sesn1, E2f11, Prkca, Brca1) [4]: significantly down regulated; increase of ATM gene expression vs control ([4]; IBN-19 90 uM, IBN-24 90 uM, IBN-25 40 uM): 9 folds; activation and cleavage of caspase 3, caspase 9 and PARP [5]: induced significant activation and cleavage
3 | [Br-].c1ccc(CCn2cc[n+](CCc3ccccc3)c2)cc1 [IBN-32, 1,3-di(2-phenylethyl)-imidazolium bromide] | 18 | 20 | 20 | 14.6 | 18.9 | 32.3 | –
4 | Cc1n(Cc2ccccc2)cc[n+]1Cc1ccccc1.[Br-] [compound C, 1,3,-Dibenzyl-2-methylimidazolium bromide] | – | – | – | – | – | – | IC50 [6]: 35 µM; IC50 [7]: 35 µM; IC50 in normal breast epithelial cells [8]: no IC50
5 | B1 | – | – | – | – | – | – | apoptosis (annexin V staining) [9]: not in HLE cells; apoptosis (annexin V staining) [10]: only induced apoptosis in HepG2

Reference: patent publication US9072729B2, “Method for treating fibrosis and cancer with imidazolium and imidazolinium compounds” (Agency for Science, Technology and Research, priority 2008, dated 2015)
